# Source: US20090136461A1, “Neuronal differentiation method of adult stem cells using small molecules” (priority 2007, published 2009)
# Legend:
# Assay in all cases: Neuronal differentiation, inverted microscope morphology
# Type in all cases: cell-based, Fischer rats
# [1] = tested on: adipose-derived stem cells; details: 10 μM small molecules; FIG. 3C, FIG. 4
# Method: (§1) Bone marrow-derived mesenchymal stem cells subcultured for 5 generations were distributed on a well plate. One day later, the cells were treated with DMEM containing 20% FBS and 10 ng/mL b-FGF for a day, so that the cells could proliferate sufficiently. In order to induce differentiation into nerve cells, the cells were treated with differentiation medium containing the small molecules listed in Table 1. The small molecules were used after being dissolved in DMSO (Sigma, USA). The concentration of DMSO was less than 2% of the entire culture medium, and was diluted so that the small molecules were included with a concentration in the range from 1 μM to 100 μM. As negative control, DMEM containing 10% FBS and 1% penicillin-streptomycin was used. And, retinoic acid as positive control, which is a well-known inducer of differentiation into nerve cells, was used after being diluted to 2 μM in DMEM. Differentiation of muscle-derived stem cells and adipose-derived stem cells into nerve cells was induced similarly as in the bone marrow-derived stem cells.
# [2] = tested on: bone marrow-derived mesenchymal stem cells; details: 10 μM small molecules; FIG. 3A
# Method: as §1
# [3] = tested on: muscle-derived stem cells; details: 10 μM small molecules; FIG. 3B
# Method: as §1
smiles,measurement,setting,value
CC(CCCCC(C)(C)C(=O)NO)C(=O)Nc1ccccc1 (centres unmarked) [AAHA-2],differentiation (microscopic images),[1],differentiated
O=C(NO)c1ccc(/C=C(/CNc2ccc(-c3ccccc3)cc2)COc2cccc3ccccc23)cc1 [BHA-3],differentiation (microscopic images),[1],differentiated
O=C(NO)c1ccc2c(c1)NC(CCCc1ccccc1)C(=O)N2 (centres unmarked) [QHA-2],differentiation (inverted microscopic images),[2],differentiated
same,differentiation (microscopic images),[1],differentiated
same,differentiation (inverted microscopic images),[3],differentiated
COc1ccc(NC(=O)/C(=C/c2ccc(C(=O)NO)cc2)COc2cccc3ccccc23)cn1 [BHA-4],differentiation (microscopic images),[1],differentiated
C/C(=C/CCCCC(=O)NO)C(=O)NC1Cc2ccccc2C1 [AAHA-1],differentiation (microscopic images),[1],differentiated
O=C(CCc1ccc(C(=O)NO)cc1)Nc1cccc(OCc2ccccc2)c1 [BHA-1],differentiation (inverted microscopic images),[2],differentiated
same,differentiation (microscopic images),[1],differentiated
same,differentiation (inverted microscopic images),[3],differentiated
O=C(Nc1ccccc1)/C(=C/c1ccc(C(=O)NO)cc1)COc1ccc2oc3ccccc3c2c1 [BHA-2],differentiation (microscopic images),[1],differentiated
